Experimental data as given in PubChem BioAssay AID467 (The Scripps Research Institute Molecular Screening Center, 2006).
Activity calls are given as the source filed them. How the calls were made is not given here.

Test system: parental cell line counter screen, S1P1 agonist assay readout
Test: signal in parental cells, counter-screen for S1P1 agonist project (AID 467);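 further: agonist potency measured against forskolin stimulation plus an EC20 level of SEW2871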

For `Cc1nc2ccccc2c2oc(C(=O)NCC3COc4ccccc4O3)cc12` (stereo unspecified), the EC50 was 20.2 µM (inactive).

`CC(C)(C)OC(=O)N[C@@H](Cc1ccccc1)c1nnc(S(=O)(=O)Cc2ccccc2)o1` was tested, and the EC50 was 1.51 µM.

`C=CCn1c(C)cc(C(=O)CSc2nc3ccccc3o2)c1C` was tested, and the EC50 was > 30 µM (inactive).

With `O=S(=O)(CCSc1ccccn1)c1nc2ccccc2s1` the EC50 was 4.71 µM.

With `CCCCOc1ccc(S(=O)(=O)Nc2cc(OC)ccc2OC)cc1` the EC50 was > 30 µM (inactive).

In the case of `Cc1nn(Cc2ccc(Cl)cc2)c(C)c1NC(=O)c1cc(-c2ccco2)on1`, the EC50 is reported as 85.2 µM (inactive).

In the case of `COc1cccc(-c2nnc3sc(C4CCCCC4)nn23)c1`, the EC50 is reported as 44.2 µM (inactive).

With `CC1CCN(S(=O)(=O)c2ccc3c(c2)oc(=O)n3CC(=O)NCc2ccc3c(c2)OCO3)CC1` the EC50 was > 30 µM (inactive).

With `CCOc1ccccc1OCCCCCc1c(C)n[nH]c1C` the EC50 was > 30 µM (inactive).

With `CCC(=NC(C)c1ccccc1)c1c(O)n(C)c(=O)n(C)c1=O` (stereo unspecified) the EC50 was > 30 µM (inactive).

For `Cc1ccsc1C(=O)OCC(=O)c1cc(C)n(CC2CCCO2)c1C` (stereo unspecified), the EC50 was > 95.1 µM (inactive).

With `CC1=CC(C)(C)Nc2ccc(OC(=O)c3ccco3)cc21` the EC50 was > 3 µM (inactive).

`CCn1c(SCC(=O)Nc2nc3ccc(C)cc3s2)nc2c(c1=O)SC(C)C2` (stereo unspecified) was tested, and the EC50 was > 10 µM (inactive).

In the case of `CCCC(=O)N1CCN(c2ccc(NC(=O)c3cc4ccccc4o3)cc2Cl)CC1`, the EC50 is reported as 10.8 µM (inactive).

With `C=CCN1C(=Nc2cccnc2)SCC1(O)c1ccc(C)cc1` (stereo unspecified) the EC50 was 31.9 µM (inactive).

With `CC(C)c1ccc2oc(-c3ccc(N)cc3)nc2c1` the EC50 was > 30 µM (inactive).

For `CCCCc1ccc(C2C(C#N)=C(N)SC(N)=C2C#N)s1`, the EC50 was 16.8 µM (inactive).

Molecule `CC(C)(C)C1CCC2(CC1)C(C#N)=C(SCC(=O)Nc1ccccc1)NC(=O)C2C#N` (stereo unspecified) has an EC50 of 7.15 µM.

With `Cc1cc2nc(-c3ccc(NC(=O)C(C)C)cc3)oc2cc1C` the EC50 was > 95.1 µM (inactive).

For `CC1=CC(C)(C)Nc2ccc(OC(=O)c3cccnc3)cc21`, the EC50 was 4.43 µM.

`COc1ccc(-c2nc3cc(NC(=O)Cc4ccc(OC)c(OC)c4)ccc3o2)cc1` was tested, and the EC50 was > 10 µM (inactive).

For `Cn1c(C(=O)N2CCCc3ccccc32)cc2sccc21`, the EC50 was > 95.1 µM (inactive).

For `Cc1cc(N2CCN(C(c3ccccc3)c3ccccc3)CC2)n2ncnc2n1`, the EC50 was > 30 µM (inactive).

`CCCS(=O)(=O)c1nnnn1-c1cccc(OC)c1` was tested, and the EC50 was 0.988 µM.

For `CCSc1nc(N2CCOCC2)c2c(c1C#N)CCCC2`, the EC50 was > 95.1 µM (inactive).

For `Cc1cc(C(=O)Nc2sc(C)c(-c3ccc(F)cc3)c2C(N)=O)no1`, the EC50 was > 95.1 µM (inactive).

`O=C(Nc1ccc(N2CCOCC2)c(Cl)c1)c1cccc(F)c1` was tested, and the EC50 was > 95.1 µM (inactive).

With `CCN(CC)S(=O)(=O)c1cccc(S(=O)(=O)c2cccc(S(=O)(=O)N(CC)CC)c2)c1` the EC50 was > 95.1 µM (inactive).

With `Cc1cc(C(=O)CSc2nnnn2-c2ccc(O)cc2)c(C)n1Cc1ccc2c(c1)OCO2` the EC50 was 11.9 µM (inactive).

For `Cc1ccc(-c2csc(N3CCC(NS(=O)(=O)c4ccc5c(c4)OCCO5)CC3)n2)cc1`, the EC50 was 5.75 µM.

With `CCN(C(=O)C1CCCCC1)c1nnc(-c2cccnc2)s1` the EC50 was > 95.1 µM (inactive).

With `COc1ccc(/C=N/O)cc1COc1ccc(NC(C)=O)cc1` the EC50 was > 95.1 µM (inactive).

With `Cc1cccc(-n2ncc3c(N(C)C4CCCCC4)ncnc32)c1` the EC50 was > 95.1 µM (inactive).

For `CCOc1ccc(-c2nnc(-c3cccnc3)o2)cc1OCC`, the EC50 was > 95.1 µM (inactive).

`Clc1ccc(-n2nnnc2Sc2ncnc3sccc23)cc1` was tested, and the EC50 was 2.87 µM.

`COc1ccc2c(c1)CCc1c(C(=O)Nc3ccc(OC)c(OC)c3)noc1-2` was tested, and the EC50 was > 95.1 µM (inactive).

For `O=C(Nc1ccc(N2CCCC2)c(Cl)c1)c1ccc(Br)o1`, the EC50 was > 95.1 µM (inactive).

For `Cc1nn(Cc2ccc(Cl)c(Cl)c2)c(C)c1NC(=O)c1cc(CC(C)C)on1`, the EC50 was 23.8 µM (inactive).

With `COc1ccccc1Oc1ccc2c(c1)C(=O)N(c1cccc(O)c1)C2=O` the EC50 was > 30 µM (inactive).

For `CCC1CCCCN1C(=O)CSc1nnc(-c2c[nH]c3ccccc23)o1` (stereo unspecified), the EC50 was > 30 µM (inactive).

`COc1ccc(-n2c(C)cc(C(=O)CSc3nnc(-c4cccs4)o3)c2C)cc1` was tested, and the EC50 was 32.3 µM (inactive).

For `Cn1c(=O)oc2cc(S(=O)(=O)N3CCCC(C(=O)N4CC=C(c5ccccc5)CC4)C3)ccc21` (stereo unspecified), the EC50 was 44.5 µM (inactive).

In the case of `COc1ccc2c(c1)CCc1c(C(=O)NC3CCCCC3)noc1-2`, the EC50 is reported as > 95.1 µM (inactive).

In the case of `Nc1nonc1C(=O)NCCNCc1cc(Br)ccc1OCc1ccccc1F`, the EC50 is reported as 28.9 µM (inactive).

For `C/C(N)=C(/C#N)C(=O)CSc1nnc(SCc2ccc(Cl)cc2)s1`, the EC50 was > 95.1 µM (inactive).

`N#C/C(=C/c1ccc(N2CCCCCC2)o1)c1ccc(F)cc1` showed an EC50 of 4.4 µM.

For `CCc1oc2ccccc2c1C(=O)c1cc(Br)c(O)c(Br)c1`, the EC50 was 13.5 µM (inactive).

In the case of `CC(=O)Oc1ccc(N2C(=O)C3C(C2=O)C2(C)C=CC3(C)O2)cc1` (stereo unspecified), the EC50 is reported as 3.23 µM.

With `Cc1ccc(S(=O)(=O)Nc2cccc3ncccc23)s1` the EC50 was > 95.1 µM (inactive).

With `COc1ccc(S(=O)(=O)Cc2ccc(C(=O)N3CCN(c4ccc(Cl)cc4)CC3)o2)cc1` the EC50 was > 30 µM (inactive).

With `CCN=c1sc(C(=O)NCCc2ccccc2)cc(=O)n1CC` the EC50 was 53.2 µM (inactive).

For `CCC(=NCCOc1ccc(Cl)cc1)c1c(O)n(C)c(=O)n(C)c1=O`, the EC50 was 18.9 µM (inactive).

In the case of `CC(C)OCCCNc1ncnc2c1[nH]c1ccccc12`, the EC50 is reported as 43 µM (inactive).

In the case of `O=C(c1cc(-c2ccco2)on1)N1CCN(C(c2ccccc2)c2ccccc2)CC1`, the EC50 is reported as > 95.1 µM (inactive).

`CCSc1nnc(NC(=O)C(Cc2ccccc2)n2cccc2)s1` (stereo unspecified) was tested, and the EC50 was > 95.1 µM (inactive).

For `CCCc1cc(C(=O)Nc2sc(C)c(CC)c2C#N)no1`, the EC50 was > 95.1 µM (inactive).

`CCOC(=O)c1c(C)[nH]c(C(=O)C(C)OC(=O)c2cccc(OCc3c(C)noc3C)c2)c1C` (stereo unspecified) was tested, and the EC50 was 20.1 µM (inactive).

In the case of `CN=C(NC#N)SCC(=O)c1ccc(Cl)cc1Cl`, the EC50 is reported as > 30 µM (inactive).

With `Cc1cc(NC(=O)c2oc3ccccc3c2C)ccc1-n1cnnn1` the EC50 was > 30 µM (inactive).

In the case of `Cc1cc(N2CCOCC2)nc(NCc2ccccc2)n1`, the EC50 is reported as 71.3 µM (inactive).

For `COC(=O)c1ccc(C(c2c(N)n(CC(C)C)c(=O)[nH]c2=O)N2CCN(c3ccccc3)CC2)cc1` (stereo unspecified), the EC50 was > 95.1 µM (inactive).

With `Cc1sc2ncnc(Sc3nnnn3-c3ccccc3)c2c1C` the EC50 was > 30 µM (inactive).

For `Cc1cc(C(=O)COC(=O)c2csc3c2CCCC3)c(C)n1C`, the EC50 was > 95.1 µM (inactive).

In the case of `COc1cccc(-c2cc(C(=O)Nc3ccccc3SC)no2)c1`, the EC50 is reported as > 95.1 µM (inactive).

For `Nc1ccc(N2CCOCC2)c(Cl)c1`, the EC50 was > 95.1 µM (inactive).

With `CCn1c(-c2cccc(Cl)c2)n[nH]c1=S` the EC50 was > 95.1 µM (inactive).

In the case of `CCOc1ccc(C(C)=O)cc1N1C(=O)C2C3C=CC(O3)C2C1=O` (stereo unspecified), the EC50 is reported as 4.31 µM.

For `CCCCOc1ncnc2c1[nH]c1ccccc12`, the EC50 was 37.9 µM (inactive).

For `COc1cc(-c2noc(C3CCCN(S(=O)(=O)c4cccc(Cl)c4)C3)n2)cc(OC)c1OC` (stereo unspecified), the EC50 was > 95.1 µM (inactive).

With `CCn1c(NC(=O)c2cccc(Cn3cc(Cl)cn3)c2)nc2ccccc21` the EC50 was > 95.1 µM (inactive).

With `CCOc1ccc(-c2nc(-c3ccccc3)no2)cc1OCC` the EC50 was > 95.1 µM (inactive).

`CCCn1c(NC(=O)c2cccc(S(=O)(=O)N3CCCC3)c2)nc2ccccc21` was tested, and the EC50 was 10.4 µM (inactive).

In the case of `O=S1(=O)C=C(Sc2nc3cc(Cl)ccc3o2)c2ccccc21`, the EC50 is reported as 6.35 µM.

For `CNc1oc(-c2ccc(OCc3ccccc3)cc2)nc1C#N`, the EC50 was > 95.1 µM (inactive).

`CCOC(=O)CN(C(=O)CSc1nnc(-c2cccc(OC)c2)o1)c1ccc(F)cc1` was tested, and the EC50 was > 95.1 µM (inactive).

For `Cc1ccc2[nH]c3c(N4CCCCCC4)ncnc3c2c1`, the EC50 was 10.9 µM (inactive).

With `COc1ccc(/C(O)=C2/C(=O)C(=O)N(CC3CCCO3)C2c2cccc(OC)c2)cc1` (stereo unspecified) the EC50 was > 95.1 µM (inactive).

`COc1cc(CSc2nnnn2-c2ccc(C)cc2)cc(OC)c1OC` was tested, and the EC50 was > 30 µM (inactive).

In the case of `CC(=O)c1sc(NC(=O)C2(F)C(F)(F)C(F)(F)C(F)(F)C(F)(F)C2(F)F)nc1C`, the EC50 is reported as 31.2 µM (inactive).

With `Cn1nc(CC(=O)Nc2ccc3c(c2)OCCO3)c2ccccc2c1=O` the EC50 was > 30 µM (inactive).

For `CCN(CC)c1ccc2cc(NC(=O)CCC(=O)O)c(=O)oc2c1`, the EC50 was 6.1 µM.

`Cc1ccc2[nH]c3c(N4CCN(Cc5ccc6c(c5)OCO6)CC4)ncnc3c2c1` was tested, and the EC50 was > 95.1 µM (inactive).

For `Cc1ccc(C(C)C)c(OCc2ccc(-c3nnco3)cc2)c1`, the EC50 was > 95.1 µM (inactive).

`O=C(Nc1ccc(Cl)cc1)N1CCC(c2nc(-c3ccc(F)cc3)no2)CC1` was tested, and the EC50 was 20 µM (inactive).

`Cc1cccc(NC(=O)Nc2ccc(C#N)cc2)n1` was tested, and the EC50 was 43 µM (inactive).

`O=C(Nc1ccc(O)cc1)c1cc2n(n1)C(C(F)(F)F)CC(c1ccco1)N2` (stereo unspecified) was tested, and the EC50 was > 95.1 µM (inactive).

In the case of `Clc1ccccc1C1=Nn2c(nnc2-c2ccncc2)SC1`, the EC50 is reported as 13.9 µM (inactive).

For `CC(C)Cc1cc(C(=O)Nc2sc3c(c2C#N)CCCC3)no1`, the EC50 was > 95.1 µM (inactive).

`Cc1ccc(Cl)cc1N1CCN(C(=O)C2CCN(c3nnc(-n4cccc4)s3)CC2)CC1` was tested, and the EC50 was > 95.1 µM (inactive).

`Clc1ccc(OCc2nc(-c3ccncc3)no2)c(Br)c1` was tested, and the EC50 was > 30 µM (inactive).

`CCOC(=O)c1oc2cc(O)c(CC)cc2c(=O)c1-c1ccc2c(c1)OCCO2` was tested, and the EC50 was > 30 µM (inactive).

In the case of `CCOc1ccc(C(=O)Nc2ccc(Cl)cn2)cc1Cl`, the EC50 is reported as > 95.1 µM (inactive).

`COC(=O)c1ccc(CSc2nc3ccccc3c(=O)n2Cc2ccco2)o1` was tested, and the EC50 was > 95.1 µM (inactive).

In the case of `O=C1C2CCCN2C(c2cccnc2)N1c1cccc(Cl)c1` (stereo unspecified), the EC50 is reported as > 95.1 µM (inactive).

For `O=C(Nc1c(F)cc(F)cc1Br)c1cc(-c2ccc(O)cc2)on1`, the EC50 was 53.6 µM (inactive).

With `Oc1ccc(-c2nc(-c3ccc(O)c(O)c3)cs2)cc1` the EC50 was 6.35 µM.

For `Cc1cc(C(=O)CSc2nnc(-c3cccs3)o2)c(C)n1-c1ccccc1`, the EC50 was 19.2 µM (inactive).

For `Nn1c(Nc2ccccc2)nc2sc3c(c2c1=O)CCC3`, the EC50 was > 30 µM (inactive).

In the case of `C=C(C)COc1ccc(-c2nc(N)nc(C)c2Oc2ccccc2OC)c(O)c1`, the EC50 is reported as > 10 µM (inactive).

`CCOC(=O)C1CCN(c2ncnc3c2oc2ccc(Cl)cc23)CC1` was tested, and the EC50 was > 95.1 µM (inactive).

In the case of `O=C(NCc1ccccc1)N1CCN(c2ccc(Cl)c(Cl)c2)CC1`, the EC50 is reported as > 95.1 µM (inactive).
